In patent publication US20220023279A1, “COMPOSITIONS FOR TREATMENT OF SYMPHYSIOLYSIS” (priority 2018, published 2022):
Counter-ions that a name gives are not always drawn.

Experiments:
[1] = system: patient suffering from symphysiolysis; assay: Example 1: subcutaneous local anesthetic to the inguinal region, pregnant patient with symphysiolysis confined to a wheelchair; format: in vivo, human; details: each side of inguinal region
Procedure: A patient weighing about 60 kilograms had previously suffered from a car accident with injury to their left leg, resulting in complex regional pain syndrome. Walking was impaired, and crutches were required for mobility. During pregnancy, they were diagnosed with symphysiolysis and they were confined to a wheelchair as they were unable to ambulate using crutches.
The treatment lasted for one hour. After one hour, additional Bupivacaine HCl was administered, 0.5% of an amount of 5 ml, diluted in 5 ml of saline solution to each side of the inguinal region.
Before and after the administration ultrasound to test fetal pulse was performed to confirm that there was a fetal pulse. The patient was directed to perform fetal monitoring on the day after the administration.

[2] = system: patient suffering from symphysiolysis; assay: Example 3: subcutaneous lidocaine and bupivacaine to the inguinal region, person in 31st week of pregnancy with symphysiolysis; format: in vivo, human
Description: A person, weighing about 60 kilograms, in their 20th week complained of groin pains which spread to their right leg. They had difficulty walking and appeared to be dragging their right leg. Upon examination, no sensitivity in symphysis pubis joint was evident. Sensitivity was noticeable at the right sacroiliac joint. Reducing physical activity was recommended by the physician.
(§1) After about six weeks, the patient returned with noticeable sensitivity at the left sacroiliac joint, and some sensitivity at the right sacroiliac joint. Painkillers and orthopedic stabilization of the hip were recommended. NSAIDs were prescribed to be used until the 31st week. The patient had symptoms of symphysiolysis in the 29th week which were relieved using NSAID therapy (diclofenac sodium).
During the 31st week, the patient felt an increase in symphysiolysis. […] The patient complained of temporary paralysis during walking, difficulty sleeping and difficulty sitting because of pain in the groin and back areas. Subcutaneous anesthesia to the inguinal region was recommended. A fetal ultrasound was performed, and fetal movement and pulse were both satisfactory.
The patient was injected, subcutaneously in the inguinal region with 1% lidocaine.
Two days post lidocaine treatment, the patient felt increased pain, and paresthesia in the legs. […] Twenty minutes after the lidocaine administration, the patient received bupivacaine, 0.5%, in an amount of 5 ml to both sides (not diluted with saline), via subcutaneous administration to the inguinal region. […] The patient reported fatigue.

[3] = system: patient suffering from symphysiolysis; assay: Example 3: NSAID therapy of symphysiolysis symptoms in the 29th week of pregnancy; format: in vivo, human
Description: as §1

[4] = system: patient suffering from symphysiolysis; details: 5 ml lidocaine HCl 1%, subcutaneous, both sides
Description: They were recommended to perform orthopedic support, physical therapy and to medicate with oral paracetamol and dipyrone for pain management. Bedrest was recommended.
At 35 weeks they felt an increase in the severity of symphysiolysis. They used orthopedic support methods which were not sufficient to relieve the symptoms. They had considered inducing labor and using a walker to enhance mobility.

CCCCN1CCCCC1C(=O)Nc1c(C)cccc1C (centres unmarked) [Bupivacaine HCl]
additional duration of mobility ([1]; Bupivacaine HCl 0.5%, 5 ml diluted in 5 ml saline, given one hour after lidocaine HCl): nine

CCCCN1CCCCC1C(=O)Nc1c(C)cccc1C (centres unmarked) [Bupivacaine]
pain level ([2]; five hours after lidocaine, bupivacaine 0.5%, 5 ml both sides, given twenty minutes after lidocaine): further improvement in pain level | pain, walking and walking speed ([2]; three hours after lidocaine, bupivacaine 0.5%, 5 ml both sides undiluted, subcutaneous, given twenty minutes after lidocaine): significant improvement in walking, decrease in pain, and increase in walking speed | side effect reported by the patient ([2]; three hours after lidocaine, bupivacaine 0.5%, 5 ml both sides, given twenty minutes after lidocaine): fatigue

CCN(CC)CC(=O)Nc1c(C)cccc1C [Lidocaine]
pain and walking ([2]; 5 minutes after second treatment, 1 ml lidocaine 1% without saline, subcutaneous, both sides): improvement in walking, but pain still remained | back pains ([2]; 20 hours after first treatment, 1% lidocaine subcutaneous in inguinal region): back pains returned, but to a lesser extent than before the treatment | sleeping ([2]; night after first treatment, 1% lidocaine subcutaneous in inguinal region): greatly improved | pain and walking ([2]; six hours after first treatment, 1% lidocaine subcutaneous in inguinal region): less of an influence of the anesthetic, but still felt that walking was better than before the treatment | pain and walking ([2]; ten minutes after second treatment, 1 ml lidocaine 1% without saline, subcutaneous, both sides): able to walk without pain and did not feel back pain | pain and walking ([2]; three hours after first treatment, 1% lidocaine subcutaneous in inguinal region): improvement in pain and in walking but still felt minor freezing of gait

O=C(O)Cc1ccccc1Nc1c(Cl)cccc1Cl [diclofenac sodium]
symptoms of symphysiolysis under NSAID therapy [3]: relieved

CCN(CC)CC(=O)Nc1c(C)cccc1C [lidocaine HCl]
patient condition after administration (standing, pain, need of wheelchair) ([1]; lidocaine HCl 1%, 5 ml diluted with 5 ml saline, subcutaneous): able to stand without pain and no longer required a wheelchair | side effects reported by the patient after the treatment [4]: slight dizziness and occasionally heat rate increases | ability to climb stairs ([4]; after 30 minutes): able climb stairs without significant pain | pain in hip joint which had limited walking ([4]; after 30 minutes): significantly reduced | relief of symphysiolysis symptoms ([4]; after 30 minutes): significant relief | sharp pain in the left groin area ([4]; after 30 minutes): disappeared
